Results: ChEMBL document CHEMBL1201862, “PubChem BioAssay data set” (2004)
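Dose response: 5 concentrations. Exposure: 48 h. Format: 96-well plates. Endpoint: linear interpolation; highest concentration if not reached. GI50 is the concentration that inhibits growth by half.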 Calls of active or inactive are those of the source. No stated cut-off is given here; in the data, active = GI50 up to about 1.1 µM and inactive = higher.

Assays:
Assay in all cases: DTP human tumour cell line panel, 48 h
SF-539 = test system: SF-539
HOP-62 = test system: HOP-62
OVCAR-5 = test system: OVCAR-5
NCI-H23 = test system: NCI-H23
SK-MEL-5 = test system: SK-MEL-5
HCT-15 = test system: HCT-15
ACHN = test system: ACHN
LOX IMVI = test system: LOX IMVI
K562 = test system: K562
UO-31 = test system: UO-31
UACC-257 = test system: UACC-257
MOLT-4 = test system: MOLT-4
HOP-92 = test system: HOP-92
SK-MEL-28 = test system: SK-MEL-28
CAKI-1 = test system: CAKI-1
TK-10 = test system: TK-10
786-0 = test system: 786-0
KM12 = test system: KM12
PC-3 = test system: PC-3
SK-MEL-2 = test system: SK-MEL-2

Row | Compound | GI50 (SF-539) | GI50 (HOP-62) | GI50 (OVCAR-5) | GI50 (NCI-H23) | GI50 (SK-MEL-5) | GI50 (HCT-15) | GI50 (ACHN) | GI50 (LOX IMVI) | GI50 (K562) | GI50 (UO-31) | GI50 (UACC-257) | GI50 (MOLT-4) | GI50 (HOP-92) | GI50 (SK-MEL-28) | GI50 (CAKI-1) | GI50 (TK-10) | GI50 (786-0) | GI50 (KM12) | GI50 (PC-3) | GI50 (SK-MEL-2)
1 | N#CC(C#N)=CNCCN1CCN(C=C(C#N)C#N)CC1 | > 100 µM (inactive) | > 100 µM (inactive) | > 100 µM (inactive) | > 100 µM (inactive) | > 100 µM (inactive) | > 100 µM | > 100 µM (inactive) | > 100 µM (inactive) | > 100 µM (inactive) | > 100 µM (inactive) | > 100 µM (inactive) | > 100 µM (inactive) | > 100 µM (inactive) | > 100 µM (inactive) | > 100 µM (inactive) | > 100 µM (inactive) | > 100 µM (inactive) | > 100 µM (inactive) | > 100 µM (inactive) | > 100 µM (inactive)
2 | Cc1cn(C(=O)NC23CC4CC(CC(C4)C2)C3)c(=O)[nH]c1=O | 46.2 µM (inactive) | > 100 µM (inactive) | > 100 µM (inactive) | 32.1 µM (inactive) | 38.3 µM (inactive) | 25.3 µM | 27.9 µM (inactive) | 27.5 µM (inactive) | 31.6 µM (inactive) | 69.5 µM (inactive) | 45.1 µM (inactive) | 41.5 µM (inactive) | 51.6 µM (inactive) | 67.5 µM (inactive) | 32.2 µM (inactive) | 32.8 µM (inactive) | 37.2 µM (inactive) | 64.4 µM (inactive) | 35 µM (inactive) | 19.9 µM (inactive)
3 | Cc1cc(O)c2c(c1)C(C1c3cccc(O)c3C(=O)c3c(O)cc(C)cc31)c1cccc(O)c1C2=O (stereo not given) | 0.21 µM (active) | 0.432 µM (active) | 0.766 µM (active) | 0.37 µM (active) | 0.212 µM (active) | 0.317 µM | 0.337 µM (active) | 0.354 µM (active) | 1.02 µM (active) | 0.306 µM (active) | 0.3 µM (active) | 0.615 µM (active) | 0.258 µM (active) | 0.394 µM (active) | 2.86 µM (inactive) | 0.598 µM (active) | 0.466 µM (active) | 0.166 µM (active) | 0.105 µM (active) | 0.294 µM (active)
4 | COC(=O)c1c(C)cccc1C1CN=NC12Cc1cc(C)c(C)cc1C2=O (stereo not given) | > 100 µM (inactive) | > 100 µM (inactive) | > 100 µM (inactive) | 29.9 µM (inactive) | 17.1 µM (inactive) | 30.5 µM | 57.4 µM (inactive) | 24.2 µM (inactive) | 25.4 µM (inactive) | 31.6 µM (inactive) | 27.2 µM (inactive) | 33.9 µM (inactive) | 30.4 µM (inactive) | > 100 µM (inactive) | 73.1 µM (inactive) | 51.4 µM (inactive) | 62.4 µM (inactive) | 30.5 µM (inactive) | 34.7 µM (inactive) | 31 µM (inactive)
